Experimental findings from US7495104B2, “Quinoline or quinazoline derivatives inhibiting auto-phosphorylation of fibroblast growth factor receptors” (Kirin Beer Kabushiki Kaisha, priority 2001, dated 2009) are described below.

Molecules are shown by their SMILES. Counter-ions that a name gives are not always drawn.

Chain of Bek (P21802 431-767 limits assumed): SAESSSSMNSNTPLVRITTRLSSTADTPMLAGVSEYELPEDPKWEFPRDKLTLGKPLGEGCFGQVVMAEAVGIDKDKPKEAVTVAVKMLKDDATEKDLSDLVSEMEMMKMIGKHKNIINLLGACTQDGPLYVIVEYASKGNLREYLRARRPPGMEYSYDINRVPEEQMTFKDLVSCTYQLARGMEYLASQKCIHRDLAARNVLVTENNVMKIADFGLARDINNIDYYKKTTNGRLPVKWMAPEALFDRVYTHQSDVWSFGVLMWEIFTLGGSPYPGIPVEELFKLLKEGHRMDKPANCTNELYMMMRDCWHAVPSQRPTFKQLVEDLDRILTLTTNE

The test concerns the target Bek (Homo sapiens, UniProt P21802). As to the kind of experiment: Inhibitory activity against Bek-autophosphorylation using ELISA method in OCUM-2MD3 cells. Type of test: cell-based. The note with it: 1 hr with compound, read-out: IC50 (concentration necessary for inhibiting 50% of Bek-phosphorylation). The essentials: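 Sandwich ELISA (anti-phosphotyrosine capture, anti-Bek detection, peroxidase, 450 nm) measured Bek autophosphorylation in OCUM-2MD3 lysates after 1 hr compound treatment at 37° C in 0.1% serum medium. IC50 derived by scaling between no-drug (100%) and excess positive control at 1000 nM (0%).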
Consider `COc1cc2c(Oc3ccc(NC(=O)NCCC(C)(C)C)c(Cl)c3)ccnc2cc1OCCC1CCNCC1` [Compound 202, 1-{2-Chloro-4-[6-methoxy-7-(2-piperidin-4-yl-ethoxy)-quinolin-4-yloxy]-phenyl}-3-(3,3-dimethyl-butyl)-urea], for which the IC50 is 28.5 nM. Then `COc1cc2c(Oc3ccc(NC(=O)NC4CCCC(C)(C)C4)c(F)c3)ccnc2cc1OCCN1CC(C)OC(C)C1` (stereo not shown) [Compound 134, 1-(3,3-Dimethyl-cyclohexyl)-3-(4-{7-[2-(2,6-dimethyl-morpholin-4-yl)-ethoxy]-6-methoxy-quinolin-4-yloxy}-2-fluoro-phenyl)-urea], with 11.8 nM. For the compound `COc1cc2c(Oc3ccc(Nc4ccc(C(C)(C)C)cc4)c(Cl)c3)ccnc2cc1OCCN1CCC(CO)CC1` [Compound 279, [1-(2-{4-[4-(4-Tert-butyl-phenylamino)-3-chloro-phenoxy]-6-methoxy-quinolin-7-yloxy}-ethyl)-piperidin-4-yl]-methanol], the IC50 is 370 nM. With `COc1cc2nccc(Oc3ccc(Nc4nn(-c5ccccc5)c(=O)o4)cc3)c2cc1OC` [Compound 76, 5-[4-(6,7-Dimethoxyquinolin-4-yloxy)phenylamino]-3-phenyl-3H-[1,3,4]oxazol-2-one], the IC50 was 7560 nM. For the compound `COc1cc2c(Oc3ccc(NC(=O)NCCC(C)(C)C)cc3)ccnc2cc1OCCN1CCN(C)CC1` [Compound 113, 1-(3,3-Dimethyl-butyl)-3-(4-{6-methoxy-7-[2-(4-methyl-piperazin-1-yl)-ethoxy]-quinolin-4-yloxy}-phenyl)-urea hydrochloride], the IC50 stood at 10 nM. Then `COc1cc2c(Oc3ccc(Nc4ccc(C(C)(C)C)cc4)cc3)ccnc2cc1OCCN1CCCCCC1` [Compound 50, {4-[7-(2-Azepan-1-ylethoxy)-6-methoxyquinolin-4-yloxy]phenyl}-(4-tert-butylphenyl)amine], with 35 nM; and `COc1cc2nccc(Oc3c(Cl)cc(NC(=O)NCCC(C)(C)C)cc3Cl)c2cc1OC` [Compound 140, 1-[3,5-Dichloro-4-(6,7-dimethoxy-quinolin-4-yloxy)-phenyl]-3-(3,3-dimethyl-butyl)-urea], with 172 nM; and `COc1cc2c(Oc3ccc(NC(=O)NCCC(C)(C)C)c(Cl)c3)ccnc2cc1OCCCN(C)C` [Compound 172, 1-{2-Chloro-4-[7-(3-dimethylamino-propoxy)-6-methoxy-quinolin-4-yloxy]-phenyl}-3-(3,3-dimethyl-butyl)-urea], with under 10 nM. Then `COc1cc2nccc(Oc3ccc(NC(=O)NCCC(C)(C)C)cc3)c2cc1OCCCCN(C)C` [Compound 228, 1-{4-[6-(4-Dimethylamino-butoxy)-7-methoxy-quinolin-4-yloxy]-phenyl}-3-(3,3-dimethyl-butyl)-urea], with 38.5 nM; and `COc1cc2c(Oc3ccc(NC(=O)NCCC(C)(C)C)cc3)ccnc2cc1OCCN1CCC(CO)CC1` [Compound 371, 1-(3,3-Dimethyl-butyl)-3-(4-{7-[2-(4-hydroxymethyl-piperidin-1-yl)-ethoxy]-6-methoxy-quinolin-4-yloxy}-phenyl)-urea], with under 10 nM; and `COc1cc2c(Oc3ccc(Nc4ccc(C(C)(C)C)cc4)cc3)ccnc2cc1OCCC(N)=O` [Compound 26, 3-{4-[4-(4-Tert-butylphenylamino)phenoxy]-6-methoxyquinolin-7-yloxy}propionamide], with 318 nM.

On to `COc1cc2c(Oc3ccc(NC(=O)NCCC(C)(C)C)c(Cl)c3)ccnc2cc1OCCN1CC(C)OC(C)C1` (stereo not shown) [Compound 125, 1-(2-Chloro-4-{7-[2-(2,6-dimethyl-morpholin-4-yl)-ethoxy]-6-methoxy-quinolin-4-yloxy}-phenyl)-3-(3,3-dimethyl-butyl)-urea], for which the IC50 is 13 nM. As to `COc1cc2c(Oc3ccc(NC(=O)NCCC(C)(C)C)c(Cl)c3)ccnc2cc1OCCN1CCN(C)CC1` [Compound 115, 1-(2-Chloro-4-{6-methoxy-7-[2-(4-methyl-piperazin-1-yl)-ethoxy]-quinolin-4-yloxy}-phenyl)-3-(3,3-dimethyl-butyl)-urea], the IC50 is under 10 nM. Then `COc1cc2c(Oc3ccc(NC(=O)NCCC(C)(C)C)c(Cl)c3)ccnc2cc1OCCN1CCCC1` [Compound 165, 1-{2-Chloro-4-[6-methoxy-7-(2-pyrrolidin-1-yl-ethoxy)-quinolin-4-yloxy]-phenyl}-3-(3,3-dimethyl-butyl)-urea], with 68.9 nM; and `COc1cc2c(Oc3ccc(NC(=O)NCCC(C)(C)C)cc3)ccnc2cc1OCCCN(C)CCO` [Compound 269, 1-(3,3-Dimethyl-butyl)-3-[4-(7-{3-[(2-hydroxy-ethyl)-methyl-amino]-propoxy}-6-methoxy-quinolin-4-yloxy)-phenyl]-urea], with 35.6 nM.

As to `COc1cc2c(Oc3ccc(NC(=O)NCCC(C)(C)C)cc3)ccnc2cc1OCCN1CC(C)CC(C)C1` (stereo not shown) [Compound 120, 1-(3,3-Dimethyl-butyl)-3-(4-{7-[2-(3,5-dimethyl-piperidin-1-yl)-ethoxy]-6-methoxy-quinolin-4-yloxy}-phenyl)-urea], the IC50 was found to be 21 nM. With `COc1cc2c(Oc3ccc(Nc4ccc(C(C)(C)C)cc4)cc3)ccnc2cc1OCCN1C[C@@H](C)O[C@@H](C)C1` [Compound 68, (4-Tert-butylphenyl)-(4-{7-[2-(2,6-dimethylmorpholin-4-yl)ethoxy]-6-methoxyquinolin-4-yloxy}phenyl)amine], the IC50 turned out to be 248 nM. `COc1cc2c(Oc3ccc(Nc4ccc(C(C)(C)C)cc4)cc3)ccnc2cc1OCCN(C)CCO` [Compound 49, 2-[(2-{4-[4-(4-Tert-butyl-phenylamino)phenoxy]-6-methoxy-quinolin-7-yloxy}ethyl)methylamino]ethanol]: the IC50 came to 33.9 nM. Then `CCCN1CCC(COc2cc3nccc(Oc4ccc(Nc5ccc(C(C)(C)C)cc5)cc4)c3cc2OC)CC1` [Compound 42, (4-Tert-butylphenyl)-{4-[6-methoxy-7-(1-propylpiperidin-4-ylmethoxy)quinolin-4-yloxy]phenyl}amine], with 399 nM; and `COc1cc2c(Oc3ccc(NC(=O)NCCC(C)(C)C)c(Cl)c3)ccnc2cc1OC[C@H](O)CN1CCOCC1` [Compound 201, 1-{2-Chloro-4-[7-(2-hydroxy-3-morpholin-4-yl-propoxy)-6-methoxy-quinolin-4-yloxy]-phenyl}-3-(3,3-dimethyl-butyl)-urea], with under 10 nM; and `COc1cc2c(Oc3ccc(Nc4ccc(C(C)(C)C)cc4)cc3)ccnc2cc1OCC(O)CN1CCCN(C)CC1` (stereo not shown) [Compound 65, 1-{4-[4-(4-Tert-butylphenylamino)phenoxy]-6-methoxyquinolin-7-yloxy}-3-(4-methyl-[1,4]diazepin-1-yl)propan-2-ol], with 184 nM.

Turning to `COc1cc2c(Oc3ccc(NC(=O)NCCC(C)(C)C)c(Cl)c3)ccnc2cc1OCCCCCl` [Compound 162, 1-{2-Chloro-4-[7-(4-chloro-butoxy)-6-methoxy-quinolin-4-yloxy]-phenyl}-3-(3,3-dimethyl-butyl)-urea], the IC50 worked out at 252 nM.

As for `COc1cc2c(Oc3ccc(NC(=O)NCCC(C)(C)C)cc3)ccnc2cc1OCC(O)CN1CCC(Cc2ccccc2)CC1` (stereo not shown) [Compound 260, 1-(4-{7-[3-(4-Benzyl-piperidin-1-yl)-2-hydroxy-propoxy]-6-methoxy-quinolin-4-yloxy}-phenyl)-3-(3,3-dimethyl-butyl)-urea], the IC50 came to 26.7 nM.

Consider `COc1cc2nccc(Oc3ccc(NC(=O)NCCC(C)(C)C)cc3)c2cc1OCCCN(C)C` [Compound 224, 1-{4-[6-(3-Dimethylamino-propoxy)-7-methoxy-quinolin-4-yloxy]-phenyl}-3-(3,3-dimethyl-butyl)-urea], for which the IC50 worked out at 70.4 nM. Take `COc1cc2c(Oc3ccc(NC(=O)NCCC(C)(C)C)cc3)ccnc2cc1OCC(O)CN1CC(C)CC(C)C1` (stereo not shown) [Compound 251, 1-(3,3-Dimethyl-butyl)-3-(4-{7-[3-(3,5-dimethyl-piperidin-1-yl)-2-hydroxy-propoxy]-6-methoxy-quinolin-4-yloxy}-phenyl)-urea]: the IC50 is 20.7 nM. Then `COc1cc2c(Oc3ccc(NC(=O)NCCC(C)(C)C)c(F)c3)ccnc2cc1OCCCN1CCOCC1` [Compound 210, 1-(3,3-Dimethyl-butyl)-3-{2-fluoro-4-[6-methoxy-7-(3-morpholin-4-yl-propoxy)-quinolin-4-yloxy]-phenyl}-urea], with under 10 nM; and `COc1cc2c(Oc3ccc(Nc4ccc(C(C)(C)C)cc4)cc3)ccnc2cc1OCCN(C)CCO` [Compound 348, 2-[(2-{4-[4-(4-Tert-butyl-phenylamino)-phenoxy]-6-methoxy-quinolin-7-yloxy}-ethyl)-methyl-amino]-ethanol hydrochloride], with 186 nM.

Regarding `CCN(CC)CCOc1cc2nccc(Oc3ccc(Nc4ccc(C(C)(C)C)cc4)cc3)c2cc1OC` [Compound 41, N1-[4-(Tert-butyl)phenyl]-4-({7-[2-(diethylamino)ethoxy]-6-methoxy-4-quinolyl}oxy)aniline], the IC50 came out at 480 nM. Then `COc1cc2c(Oc3ccc(Nc4ccc(C(C)(C)C)cc4)cc3)ccnc2cc1OCCN1CCCCC1` [Compound 38, (4-Tert-butylphenyl)-{4-[6-methoxy-7-(2-piperidin-1-ylethoxy)-quinolin-4-yloxy]phenyl}amine], with 463 nM; and `COc1cc2c(Oc3ccc(Nc4ccc(C(C)(C)C)cc4)cc3)ccnc2cc1OCCN(CCO)CCO` [Compound 48, 2-[(2-{4-[4-(4-Tert-butyl-phenylamino)phenoxy]-6-methoxy-quinolin-7-yloxy}ethyl)-(2-hydroxyethyl)amino]ethanol], with 33.5 nM; and `CCN(CCO)CCOc1cc2nccc(Oc3ccc(NC(=O)NCCC(C)(C)C)c(Cl)c3)c2cc1OC` [Compound 342, 1-[2-Chloro-4-(7-{2-[ethyl-(2-hydroxy-ethyl)-amino]-ethoxy}-6-methoxy-quinolin-4-yloxy)-phenyl]-3-(3,3-dimethyl-butyl)-urea], with 11.6 nM.
